# Assay results from US20250019708A1, “METHODS FOR THE TREATMENT OF HRD CANCER AND BRCA-ASSOCIATED CANCER” (INSTITUT CURIE, priority 2021, published 2025).
# Tests used:
# NMNAT1−/− RPE-1 cells = experiment: Survival assay with PARP inhibitor; format: cell-based; conditions: versus WT RPE-1; FIG. 1g
# Description: FIG. 1: a, Quantification (left) and representative images (right) of clonogenic formation of wild type (WT) and BRCA2^−/− (clones C1 and C2) RPE-1 cells with and without BRCA2 cDNA complementation, after transfection with the indicated NMNAT1 siRNAs. b, Clonogenic formation (left) and WB-analysis (right) of BRCA2 mAID HeLa cells in the presence or absence of auxin (IAA) after transduction with viral particles carrying NMNAT1 shRNA or control. c, Clonogenic formation of WT and BRCA1^−/− RPE-1 cells after transfection with siNMNAT1 #2. d, Clonogenic formation of WT and NMNAT1^−/− RPE-1 cells after transfection with the indicated BRCA1/2 siRNAs. e, Quantification (left) and representative images (right) of clonogenic formation of the indicated HR-proficient and HR-deficient cells upon siNMNAT1. f, DNA damage quantification by alkaline COMET assay of P53−/− RPE-1 cells in the presence or absence of NMNAT1. g, Survival assay of WT and NMNAT1^−/− RPE-1 cells exposed to the indicated doses of the PARP inhibitor rucaparib (PARPi).
# Accumulation of DNA lesions can result in increased sensitivity to genotoxic drugs. Given that NMNAT1 functions upstream of PARP1 by providing NAD^+, the reduced PARP1 activity upon NMNAT1 loss might account for the observed synthetic lethality between NMNAT1 and BRCA.
# [1] = tested on: PARPi-resistant OVCAR8 xenografts; experiment: PARPi-resistant xenograft tumor growth and survival; format: in vivo, athymic nude mice; conditions: versus vehicle; FIG. 6A
# Description: FIG. 6: NMNAT1 inhibition kills PARPi-resistant HRD tumors in vivo. A. Growth (relative tumor volume, RTV) of parental and PARPi-resistant OVCAR8 xenografts in vivo upon PARPi (rucaparib) or vehicle treatment. B, Growth (relative tumor volume, RTV) of PARPi-resistant OVCAR8 xenografts in vivo. C, Relative tumour volumes (RTV) for individual mice treated in B after five weeks of treatment. D, Overall survival for mice bearing PARPi-resistant OVCAR8 xenografts treated with vehicle or doxycycline. For data shown in FIG. 6, the PARPi-resistant OVCAR8 cells were xenotransplanted subcutaneously in athymic nude mice. Doxycycline was supplemented in the food (625 p.p.m.).
# To translate these findings into a translational setting, the inventors derived a PARPi-resistant clone from the PARPi-naive BRCA1-deficient OVCAR8 lines, expressed either doxycycline-inducible NMNAT1 or scrambled (Scr) shRNA in these cells, and xenograft them in athymic nude mice.
# As expected the OVCAR8 PARPi-resistant cells were resistant to the PARPi rucaparib in vivo (FIG. 6A).
compound,measurement,setting,value
CNCc1ccc(-c2[nH]c3cc(F)cc4c3c2CCNC4=O)cc1 [rucaparib],sensitivity to PARP inhibitor (survival),NMNAT1−/− RPE-1 cells,sensitized
same,response of tumor to PARPi in vivo,[1],resistant
